Reference: article PMC3337405 (Cancer Chemotherapy and Pharmacology, 2012)

Columns and labels:
healthy volunteers [1] = test: Adverse events and discontinuations; type: in vivo, human
Description: Electrocardiogram analysis was performed at a blinded central reading facility (ERT, East Bridgewater, NJ) in digital format, with paper tracings obtained and archived immediately on site. Vital signs were assessed daily. Clinical laboratory parameters were assessed at baseline and at the end of study. Self-reported adverse events were continuously recorded from the first study treatment (placebo, day −1) through the end of study on day 4.

healthy volunteers [2] = test: Outlier analysis of QTc and other ECG parameters, ECG morphology; type: in vivo, human; settings: for QTcB >30 ms, time-matched change from baseline, participants: text: 30- to 60-ms category
Description: Outlier analysis for QTc was also exploratory because this study was not powered to detect individuals with genetic sensitivity to potential QT-prolonging drugs. The nonspecific outlier criterion was a change from baseline in QTc interval of 30–60 ms.
(§1) Standard triplicate 12-lead ECGs were obtained at 9 time points over 24 h at […] and at 2 time points on day 1. Electrocardiogram analysis was performed at a blinded central reading facility (ERT, East Bridgewater, NJ) in digital format, with paper tracings obtained and archived immediately on site. Vital signs were assessed daily. Clinical laboratory parameters were assessed at baseline and at the end of study. Self-reported adverse events were continuously recorded from the first study treatment (placebo, day −1) through the end of study on day 4.

[3] = system: patients with ASM, mast cell leukemia, or systemic mastocytosis; settings: 100 mg twice daily; 26 patients; preliminary results; cited from earlier work
[4] = Plasma pharmacokinetics, noncompartmental analysis; settings: human, plasma, 75 mg; for Cmax: mean (SD)
Description: Blood samples for PK analysis were collected predose and 0.5, 1, 2, 3, 4, 8, 12, and 24 h post dose on days 1 and 3 at the same time as ECG assessments. […] Noncompartmental analysis (WinNonlin™ version 5.2, Pharsight, Sunnyvale, California) was performed to determine the following PK parameters: C max, T max, minimum (trough) plasma concentration over a dosing interval (C min), and AUC calculated using a trapezoidal method. For moxifloxacin, the AUC from time 0 to the last measurable concentration sampling time was calculated (AUC0–tlast).

healthy volunteers [5] = test: Thorough QT/QTc study: QTcF change from baseline on day 3 (12-lead ECG); type: in vivo, human; settings: for QTcF change from time-matched baseline, Difference (Midostaurin – Placebo) / Upper bound of the one-sided 95% CI of Difference (Midostaurin – Placebo) in QTcF change: day 3; for QTcF change on day 3 from time-matched baseline: midostaurin arm
Text: This study was a phase I, randomized, double-blind, placebo- and active-controlled, 3-way, parallel-group study conducted at a single center in the United States and approved by the Arkansas Research Medical Testing, LLC, Institutional Review Board. The design followed the recommendations of the International Conference on Harmonisation of Technical Requirements for Registration of Pharmaceuticals for Human Use (ICH) E14 guideline on “The Clinical Evaluation of QT/QTc Interval Prolongation and Proarrhythmic Potential for Non-Antiarrhythmic Drugs” [19]. As such, the trial included a concurrent positive control group and addressed intrinsic variability by conducting multiple ECGs at baseline and during the study. The study was conducted according to the ethical principles of the Declaration of Helsinki, and written informed consent was obtained from each subject during screening.
The treatment regimen was selected to achieve maximal plasma exposure for QTc evaluation while minimizing the risks of excessive or prolonged exposure in healthy volunteers.
The baseline comparison was from day −1 to day 3 at matched time points.
The following hypothesis was tested to confirm that the study had sufficient assay sensitivity: [drawing 3] [drawing 4] where μmoxi(t) was the mean QTcF change from baseline observed following moxifloxacin 400 mg at time point t. If the null hypothesis was rejected, the study had sufficient sensitivity. The Simes method was used for the protection of an experiment-wise 5% type I error [22, 23]. With the Simes method, the original P values corresponding to 0.5, 1, 2, 3, and 4 h post baseline are ordered increasingly, that is, P 1 ≤ P 2 ≤ P 3 ≤ P 4 ≤ P 5. After the Simes correction, the P values were 5P 1, 5P 2/2, 5P 3/3, 5P 4/4, and P 5 respectively. If any of the 5 adjusted P values were <.05, assay sensitivity was claimed. Only the participants who completed all scheduled doses of study medication from day 1 to day 3 and had at least 1 ECG on day −1 (baseline) and at least 1 ECG on day 3 (time-matched day 3 data for the time-matched analysis) were included in the assay sensitivity test.
Electrocardiogram measurements at each time point were calculated as an average of 3 separate ECG extractions or replicates. (Each extraction was the mean of 3 beats.) If fewer than 3 measurements were available, the available samples were averaged (i.e., a minimum of 1 measure was required). For each subject, the time-matched baseline value was subtracted from the QT/QTc intervals to determine the change from baseline in QT/QTc intervals for that subject. The 2 null hypotheses described above were tested in a linear mixed-effect model with a compound symmetry covariance structure. The model included the baseline measure as covariate and treatment, time, and the treatment-by-time interaction as fixed effects, where time was a categorical variable and subject was a random effect.
The time-matched analysis was conducted on the QTcF change from the time-matched baseline as recommended by the ICH E14 guideline. Although modeling change from the time-matched baseline was the primary analysis, the change from the time-averaged baseline was also analyzed using the same model. For the averaged baseline, each triplicate ECG collection was averaged first, and then the averaged baseline was calculated based on all the averaged triplicate ECG and unscheduled ECGs.
as §1

[6] = midostaurin, 24 h post dose on day 3

CO[C@@H]1[C@H](N(C)C(=O)c2ccccc2)C[C@H]2O[C@]1(C)n1c3ccccc3c3c4c(c5c6ccccc6n2c5c31)C(=O)NC4 [Midostaurin, N-benzoylstaurosporin]
Abdominal pain (healthy volunteers [1]; human, in vivo): 4 (5.1) no. (%)
Arthralgia (healthy volunteers [1]; human, in vivo): 0 (0.0) no. (%)
Diarrhea (healthy volunteers [1]; human, in vivo): 25 (31.6) no. (%)
Discontinued, main cause Adverse event(s) (healthy volunteers [1]; human, in vivo): 19 (23.8) no. (%)
Dizziness (healthy volunteers [1]; human, in vivo): 0 (0.0) no. (%)
Dry mouth (healthy volunteers [1]; human, in vivo): 0 (0.0) no. (%)
Dysmenorrhea (healthy volunteers [1]; human, in vivo): 1 (1.3) no. (%)
Dyspepsia (healthy volunteers [1]; human, in vivo): 1 (1.3) no. (%)
Eructation (healthy volunteers [1]; human, in vivo): 3 (3.8) no. (%)
Flatulence (healthy volunteers [1]; human, in vivo): 3 (3.8) no. (%)
Flushing (healthy volunteers [1]; human, in vivo): 2 (2.5) no. (%)
Headache (healthy volunteers [1]; human, in vivo): 5 (6.3) no. (%)
Hiccups (healthy volunteers [1]; human, in vivo): 2 (2.5) no. (%)
Hot flushes (healthy volunteers [1]; human, in vivo): 1 (1.3) no. (%)
Nausea (healthy volunteers [1]; human, in vivo): 30 (38.0) no. (%)
Pollakiuria (healthy volunteers [1]; human, in vivo): 0 (0.0) no. (%)
Rash (healthy volunteers [1]; human, in vivo): 0 (0.0) no. (%)
Salivary hypersecretion (healthy volunteers [1]; human, in vivo): 2 (2.5) no. (%)
Sexually transmitted disease (healthy volunteers [1]; human, in vivo): 1 (1.3) no. (%)
Tachycardia (healthy volunteers [1]; human, in vivo): 2 (2.5) no. (%)
Vomiting (healthy volunteers [1]; human, in vivo): 19 (24.1) no. (%)
Participants with adverse events (healthy volunteers [1]; human, in vivo, 4 day): 43 (54.4) no. (%)
discontinuations because of gastrointestinal events of vomiting (healthy volunteers [1]; midostaurin arm, vomiting within 4 h of dosing): 17 n
Discontinued, main cause Adverse event(s) (healthy volunteers [1]; randomized set): 19 no. (%)
Discontinued, main cause Death (healthy volunteers [1]; randomized set): 0 (0.0) no. (%)
new U-wave abnormalities (healthy volunteers [2]; 12-lead ECG): No new U-wave abnormalities
new post baseline T-wave abnormalities (healthy volunteers [2]; 12-lead ECG): Three
effects on heart rate, atrioventricular conduction, cardiac depolarization (PR and QRS interval durations) (healthy volunteers [2]; midostaurin 75 mg twice daily): no effects on heart rate, atrioventricular conduction, or cardiac depolarization
PR increase ≥25% and resultant PR >200 ms, participants (healthy volunteers [2]; safety set): 0 no. (%)
QRS increase ≥25% and resultant QRS >100 ms, participants (healthy volunteers [2]; safety set): 0 no. (%)
QTcB >60 ms, time-matched change from baseline, participants (healthy volunteers [2]; safety set): 0 no. (%)
QTcF >30 ms, time-matched change from baseline, participants (healthy volunteers [2]; safety set): 0 no. (%)
QTcF >60 ms, time-matched change from baseline, participants (healthy volunteers [2]; safety set): 0 no. (%)
QTcI >30 ms, time-matched change from baseline, participants (healthy volunteers [2]; safety set): 0 no. (%)
QTcI >60 ms, time-matched change from baseline, participants (healthy volunteers [2]; safety set): 0 no. (%)
RR decrease ≥25% and resultant RR <600 ms, participants (healthy volunteers [2]; safety set): 1 (1.3) no. (%)
RR increase ≥25% and resultant RR >1,200 ms, participants (healthy volunteers [2]; safety set): 1 (1.3) no. (%)
QTcF New >450 ms, participants (healthy volunteers [2]; safety set, post baseline): 0 no. (%)
QTcB New >450 ms, participants (healthy volunteers [2]; safety set, post baseline, text: between 450 and 480 ms): 1 (1.3%) no. (%)
QTcB >30 ms, time-matched change from baseline, participants (healthy volunteers [2]; safety set): 1 (1.3) no. (%)
QTcB >30 ms, time-matched change from baseline, participants (healthy volunteers [2]; safety set, listed as midostaurin): 1 (1.3%) no. (%)
overall response rate [3]: 69%
Tmax ([4]; oral, time of peak concentrations post dose, midostaurin dosing, days 1 and 3): 1 h
Cmax ([4]; po, Day 1 (single dose), midostaurin 75 mg oral): 2140 ng/mL
Cmax ([4]; po, Day 3 (twice daily), midostaurin 75 mg oral): 2270 ng/mL
Tmax ([4]; po, Tmax, median (range), Day 1 (single dose), midostaurin 75 mg oral): 1 h
Tmax ([4]; po, Tmax, median (range), Day 3 (twice daily), midostaurin 75 mg oral): 1.1 h
QTcF change from time-matched baseline, Difference (Midostaurin – Placebo) (healthy volunteers [5]; 0 h): -2.7 ms
Upper bound of the one-sided 95% CI of Difference (Midostaurin – Placebo) in QTcF change (healthy volunteers [5]; 0 h): 1.3 ms
QTcF change from time-matched baseline, Difference (Midostaurin – Placebo) (healthy volunteers [5]; 0.5 h): -1.9 ms
Upper bound of the one-sided 95% CI of Difference (Midostaurin – Placebo) in QTcF change (healthy volunteers [5]; 0.5 h): 2.1 ms
QTcF change from time-matched baseline, Difference (Midostaurin – Placebo) (healthy volunteers [5]; 1 h): -3.7 ms
Upper bound of the one-sided 95% CI of Difference (Midostaurin – Placebo) in QTcF change (healthy volunteers [5]; 1 h): 0.3 ms
QTcF change from time-matched baseline, Difference (Midostaurin – Placebo) (healthy volunteers [5]; 2 h): -5.1 ms
Upper bound of the one-sided 95% CI of Difference (Midostaurin – Placebo) in QTcF change (healthy volunteers [5]; 2 h): -1.1 ms
QTcF change from time-matched baseline, Difference (Midostaurin – Placebo) (healthy volunteers [5]; 3 h): -3.9 ms
Upper bound of the one-sided 95% CI of Difference (Midostaurin – Placebo) in QTcF change (healthy volunteers [5]; 3 h): 0.1 ms
QTcF change from time-matched baseline, Difference (Midostaurin – Placebo) (healthy volunteers [5]; 4 h): -3.4 ms
Upper bound of the one-sided 95% CI of Difference (Midostaurin – Placebo) in QTcF change (healthy volunteers [5]; 4 h): 0.6 ms
QTcF change from time-matched baseline, Difference (Midostaurin – Placebo) (healthy volunteers [5]; 8 h): -0.7 ms
Upper bound of the one-sided 95% CI of Difference (Midostaurin – Placebo) in QTcF change (healthy volunteers [5]; 8 h): 3.3 ms
QTcF change from time-matched baseline, Difference (Midostaurin – Placebo) (healthy volunteers [5]; 12 h): -0.6 ms
Upper bound of the one-sided 95% CI of Difference (Midostaurin – Placebo) in QTcF change (healthy volunteers [5]; 12 h): 3.4 ms
QTcF change from time-matched baseline, Difference (Midostaurin – Placebo) (healthy volunteers [5]; 24 h): 0.7 ms
Upper bound of the one-sided 95% CI of Difference (Midostaurin – Placebo) in QTcF change (healthy volunteers [5]; 24 h): 4.7 ms
maximum mean QTcF change from time-matched baseline compared with placebo (healthy volunteers [5]; midostaurin 75 mg twice daily days 1-2, once day 3, 24 h post dose on day 3, ECG set): 0.7 ms
QTcF change on day 3 from time-matched baseline (healthy volunteers [5]; 0 h): -3.2 ms
QTcF change on day 3 from time-matched baseline (healthy volunteers [5]; 0.5 h after administration): -5.2 ms
QTcF change on day 3 from time-matched baseline (healthy volunteers [5]; 1 h after administration): -6.3 ms
QTcF change on day 3 from time-matched baseline (healthy volunteers [5]; 2 h after administration): -6.2 ms
QTcF change on day 3 from time-matched baseline (healthy volunteers [5]; 3 h after administration): -5.2 ms
QTcF change on day 3 from time-matched baseline (healthy volunteers [5]; 4 h after administration): -6.4 ms
QTcF change on day 3 from time-matched baseline (healthy volunteers [5]; 8 h after administration): -1.9 ms
QTcF change on day 3 from time-matched baseline (healthy volunteers [5]; 12 h after administration): -3.1 ms
QTcF change on day 3 from time-matched baseline (healthy volunteers [5]; 24 h after administration): -3.9 ms
highest upper bound of 95% CI, QTcF change from time-averaged baseline compared with placebo (healthy volunteers [5]; [6]): 4.9 ms
maximum mean QTcF change from time-averaged baseline compared with placebo (healthy volunteers [5]; [6]): 2.5 ms
